Earlier results as cited in US11571438B1, “Nutraceutical compositions to up-regulate SIRT1 and methods of use” (priority 2022, dated 2023).

Legend:
mTOR = settings: individual administration
AMPK = settings: individual administration

COc1cc(/C=C/C(=O)O)ccc1O [ferulic acid]
mTOR inhibition (mTOR): statistically significant increase | AMPK activation (AMPK): statistically significant increase

COc1ccc2cc3[n+](cc2c1OC)CCc1cc2c(cc1-3)OCO2 [berberine]
mTOR inhibition (mTOR): statistically significant increase | AMPK activation (AMPK): statistically significant increase

O=c1c(O)c(-c2ccc(O)c(O)c2)oc2cc(O)cc(O)c12 [quercetin]
mTOR inhibition (mTOR): statistically significant increase | AMPK activation (AMPK): statistically significant increase

OCCc1ccc(O)cc1 [tyrosol]
mTOR inhibition (mTOR): statistically significant increase | AMPK activation (AMPK): statistically significant increase
